Like-named read-outs stand apart in the source and are kept apart here.
Experiments:
[1] = Metabolic stability in rat liver microsomes; format: in vitro ADME
SW480 cells = experiment: MTT assay in SW480 cells; format: cell-based, Human
Method: (§1) Human CRC cell lines were purchased from the American Type Culture Collection (VA, USA). HCT-116 cells were cultured in DMEM (HyClone, Utah, USA) containing 10% fetal bovine serum (FBS; Gibco, NY, USA). SW480 cells were cultured in RPMI 1640 medium (HyClone, Utah, USA) containing 10% FBS. All cells were cultured in an incubator (Thermo, CA, USA) at a constant temperature of 37 °C and 5% CO2. N-Acetylcysteine (NAC), Trolox, MLN4924, 5-Fu, and capecitabine were purchased from MedChemExpress LLC (Shanghai, China). MG132 was purchased from Santa Cruz Biotech (CA, USA). Chloroquine (CHQ) was purchased from Sigma (CA, USA). Rapamycin was purchased from Beyotime (Shanghai, China). Primary antibodies against SRSF3 and E-Cadherin were purchased from Abcam (Cambridge, UK). Primary antibodies against N-Cadherin, Caspase 3, DHCR24, CAT, Akt and phospho-Akt (Ser473) were purchased from Cell Signaling Technology (MA, USA). Primary antibodies against β-actin, mTOR, and phospho-mTOR ([…]) were purchased from Beyotime (Shanghai, China). Primary antibody against Vimentin was purchased from Proteintech (Wuhan, China). Primary antibody against Bcl-2 was purchased from Santa Cruz Biotech (CA, USA). Primary antibody against Flag was purchased from MBL Beijing Biotech (Beijing, China). CRC cells were transfected with 100 nM siRNA or treated with various doses of SFI003 for 24 h, 48 h, or 72 h before being subjected to MTT assay as described previously.

Akt-mTOR pathway = experiment: WB of p-Akt and p-mTOR in HCT-116 and SW480 cells; format: cell-based, Human; details: HCT-116 and SW480, 20 μM, 72 h
Method: (§2) After cell lysates were prepared, protein concentrations were determined by a BCA assay (TaKaRa, Kusatsu, Japan). Equal amounts of protein were separated by SDS–PAGE and transferred to polyvinylidene difluoride membranes. After normalization, the blots were probed with appropriate antibodies, as described previously.

[2] = Metabolic stability in human liver microsomes; format: in vitro ADME
HCT-116 cells = experiment: MTT assay in HCT-116 cells; format: cell-based, Human
Method: as §1

[3] = Pharmacokinetics in ICR mice; format: in vivo; details: mouse, plasma, iv, 10 mg/kg
[4] = Serum biochemical analysis / tolerability in treated mice; format: in vivo
Method: To explore the effect of SFI003 on the growth of CRC, approximately 3 × 10^6 HCT-116 cells or 8 × 10^6 SW480 cells were collected and mixed with Matrigel (Corning, NY, USA) at a 1:1 ratio by volume and then injected into the lower back region of mice. When tumors were palpable, mice were randomly divided into four groups. One group received vehicle as a control, while the other three groups were orally administered SFI003 at a dosage of 100 or 200 mg/kg or capecitabine at a dosage of 100 mg/kg for two continuous weeks. The tumor sizes and mouse body weights were monitored every other day. At the end of the experiment, tumors and blood samples were collected for further studies. The tumor size was evaluated according to Eq.: tumor size (mm^3) = (length × width^2) × 0.5.

DHCR24 = experiment: RT-PCR and WB of DHCR24 in HCT-116 and SW480 cells; format: cell-based, Human; details: HCT-116 and SW480, 20 μM, 72 h
Method: (§3) HCT-116 and SW480 cells were transfected with 100 nM siRNA for 48 h or treated with SFI003 for 72 h. Total RNA was isolated by using TRIzol (Invitrogen, CA, USA) according to the manufacturer’s instructions and then was reversely transcribed into cDNA with random primers (TaKaRa, Kusatsu, Japan) and RT-Kit (Thermo, CA, USA). The cDNA was amplified by PCR using the primers listed in Supplementary Table 1.
as §2

[5] = Pharmacokinetics in ICR mice; format: in vivo; details: mouse, plasma
Method: 29 the blood samples by centrifuging at 5,000 rpm under 4℃ for 5 min. […]
33 or tissue sample was added into 100 µl acetonitrile containing internal standard
34 Tolbutamide. The mixture was vortexed for 3 min and centrifuged at 13,000 rpm for 10
35 min. An aliquot of 10 µl resulting supernatant was injected to LC -MS/MS system
36 (API4000 QTrap; AB Sciex) for compound analysis. The analytes were separated in a
37 Venusil XBP-C18 column (2.1×50 mm, 5 μm; Agela, China) using the mixture of 5mM
38 NH4OAc-0.1% formic acid (A) and methanol (B) as mobile phase. The gradient
39 condition was: 1.3 min, 2%B; 2.0 min, 90%B; 3.5 min, 90%B; 3.8 min, 2%B. The elutes
40 were detected by MS/MS spectrometry using ESI positive mode with m/z 271.1>172.2,
42 SFI003. […]
52 Druggability evaluation of SFI003
53 Next, we evaluated the druggability of SFI003. We first examined the
54 pharmacokinetic properties of SFI003 in mice. We measured the plasma concentration
55 of SFI003 in mice after oral administration of 100 mg/kg SFI003.

[6] = test system: CCDC50S, p53α and p53β mRNA; experiment: RT-PCR of SRSF3 target gene mRNA in HCT-116 and SW480 cells; format: cell-based, Human; details: 20 μM, 72 h
Method: as §3

SRSF3 = molecular target: T1, SRSF3 (Homo sapiens, UniProt P84103); experiment: Western blot of SRSF3 protein in HCT-116 and SW480 cells; format: cell-based; parameters: endogenous in cells; host or cells: HCT-116 and SW480; details: HCT-116 and SW480 cells, various doses, 72 h
T1 sequence (P84103 1-164): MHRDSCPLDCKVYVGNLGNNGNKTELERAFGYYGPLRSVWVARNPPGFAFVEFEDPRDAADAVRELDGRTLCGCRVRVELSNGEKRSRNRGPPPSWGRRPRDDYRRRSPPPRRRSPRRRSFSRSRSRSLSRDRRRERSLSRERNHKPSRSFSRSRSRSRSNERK
Method: as §2

[7] = read-out: intrinsic clearance (converted)
[8] = SFI003-treated tumor-bearing mice

## COc1ccc(-c2csc(N/N=C(\C)c3nc4ccccc4[nH]3)n2)cc1 [SFI003]
[1]
  half time: 53.31 min
[1]; [7]
  CLint scaled: 46.7 mL/min/kg
SW480 cells; Homo sapiens, SW480 cells, 72 h
  IC50: 48.7 µM
SW480 cells; SW480, SRSF3 siRNA 24 h, then 50 μM for 72 h
  cytotoxicity after SRSF3 silencing: eliminated
SW480 cells; SW480, various doses, 24, 48 and 72 h
  inhibition of proliferation: dose- and time-dependent
Akt-mTOR pathway
  activities of Akt (p-Akt) and mTOR (p-mTOR): inhibited
[2]
  half time: 31.50 min
[2]; [7]
  CLint scaled: 55.2 mL/min/kg
HCT-116 cells; HCT-116, SRSF3 siRNA 24 h, then 10 μM for 72 h
  cytotoxicity after SRSF3 silencing: eliminated
HCT-116 cells; HCT-116, various doses, 24, 48 and 72 h
  inhibition of proliferation: dose- and time-dependent
HCT-116 cells; HCT-116 cells, 72 h
  IC50 compared with the other synthesized compounds: the most potent compound with the lowest IC50 value
HCT-116 cells; Homo sapiens, HCT-116 cells, 72 h
  IC50: 8.78 µM
[3]
  AUC(0-inf): 5890 ng·h/mL
  AUC(0-t): 5890 ng·h/mL
  half-life: 0.4 h
[3]; read-out: MRTINF_obs
  MRT inf: 0.44 h
[3]; read-out: Vss
  Vd: 0.75 L/kg
[4]; [8]
  serum ALP, ALT, AST, GGT: no alteration
  serum CRE and URE: moderate
[4]; mice
  tolerability in vivo: well tolerated
DHCR24
  DHCR24 mRNA and protein: inhibited
[5]; oral, p.o. 100 mg/kg vs i.v. 10 mg/kg, read-out: F (bioavailability)
  bioavailability: 52.5%
[5]; po, 100 mg/kg
  AUC(0-inf): 30900 ng·h/mL
  AUC(0-t): 30900 ng·h/mL
  Tmax: 2 h
  half-life: 1.86 h
  Cmax: 4440 ng/mL
[5]; po, 100 mg/kg, read-out: MRTINF_obs
  MRT inf: 4.66 h
[6]
  mRNA level of CCDC50S: markedly reduced
  mRNA level of p53α: markedly reduced
  mRNA level of p53β: elevated
SRSF3
  level of SRSF3 protein: apparently reduced

Source: article PMC9061822, “A novel SRSF3 inhibitor, SFI003, exerts anticancer activity against colorectal cancer by modulating the SRSF3/DHCR24/ROS axis” (Cell Death Discovery, 2022)
